The values below come from PMC3763632, “Radiosynthesis and Radiotracer Properties of a 7-(2-[^18F]Fluoroethoxy)-6-methoxypyrrolidinylquinazoline for Imaging of Phosphodiesterase 10A with PET” (Pharmaceuticals, 2012).

Several values for one entry are separate records, joined by “and”; a condition that tells them apart may be missing. Equal entries are not always repeated. Where two headings read alike, the source gives them in different places.

Data set [1] concerns the target T1, PDE10A (Homo sapiens, UniProt Q9Y233).
T1 construct: purchased Biocrea GmbH, Radebeul, Germany; host or cells: SF21 insect cells (PDE10A-transfected; baculovirus system is mentioned)
Particulars: cited from earlier work.

Data set [2] deals with PDE 5A. Further details: method as in earlier work. Particulars: cited from earlier work.
For data set [3], the system named is PDE 2A. Further details: method as in earlier work. Conditions: cited from earlier work.
Data set [4] concerns PDE 6. Further details: method as in earlier work. Particulars: cited from earlier work.
For data set [5], the target named is T1, PDE10A. Description: Homologous competitive binding on membrane homogenates of PDE10A-transfected SF21 cells. Conditions: read-out: IC50 (homologous competition vs [18F]IV). How it is done:
The dissociation constant KD of [^18F]IV was determined in homologous competitive binding experiments by nonlinear regression analysis. Cell membrane homogenates from PDE10A-transfected SF21 cells (100 µg protein/mL incubation volume) were incubated with solutions of six concentrations of IV (working concentration 10 pM–[…]), each spiked with a fixed concentration of [^18F]IV (working concentration 0.05–0.1 nM).
Crude membrane homogenates isolated from PDE10A-transfected SF21 cells were obtained from Biocrea GmbH, Radebeul, Germany. For competitive radioligand displacement experiments (n = 2), the membrane preparations were diluted with incubation buffer (50 mM Tris-HCl, pH 7.4 at room temperature, 5 mM MgCl2) and re-homogenized by passing through a 27-gauge needle. The protein (100 µg) was incubated with 0.05–0.1 nM of [^18F]IV and different concentrations of IV (10 pM–1 µM), diluted from a 10 mM stock in DMSO, at a final volume of 1 mL. Nonspecific binding was determined in the presence of 10 µM of I, and control incubation was carried out accordingly using crude membrane preparations obtained from non-transfected SF21 cells.
Incubation at room temperature was terminated after 120 min by rapid filtration (Brandel 48-channel harvester; Biomedical Research and Development Lab. Inc., Gaithersburg, MD, USA) on Whatman GF/B glass-fiber filters, pre-soaked for 90 min in 0.3% polyethylenimine (Sigma, Deisenhofen, Germany), followed by washing four times with 4 mL of ice-cold wash buffer (50 mM Tris-HCl, pH 7.4 at 4 °C). Filter-bound radioactivity was quantified using a calibrated γ-counter (Wallac WIZARD, Perkin Elmer, Waltham, MA, USA).
Each experiment was carried out in triplicate. The binding parameter IC50 was estimated using iterative non-linear curve fitting. KD of [^18F]IV was estimated directly from homologous competition curve with KD = IC50-[radioligand] as well as from the respective saturation isotherm by nonlinear regression analysis.

Data set [6] has as its target T1, PDE10A. The arrangement: method as in earlier work. Conditions: cited from earlier work.
Data set [7] has as its system PDE 7B. The arrangement: method as in earlier work. Particulars: cited from earlier work.
In data set [8] the test system is PDE 11A. The arrangement: method as in earlier work. Particulars: cited from earlier work.
For data set [9], the system named is PDE 8A. Further details: method as in earlier work. Conditions: cited from earlier work.
The nature of data set [10]: log D7.0 by RP-HPLC retention. It is filed as physicochemical. Conditions: MeCN/NH4OAc, pH 7.0, read-out: Log D. From the text:
To clarify these findings, we determined the ligand distribution coefficients for [^18/19F]IV experimentally, under physiological pH conditions in solid-liquid phase systems via retention on RP-HPLC, and in liquid-liquid phase systems by conventional shake-flask method. […] All in one, an experimental log D7.0–7.4 value of ~2.7 promised a good potential for brain uptake of [^18F]IV in vivo, attended by low unspecific binding.
Referring to an OECD guideline and using a series of reference compounds (nitrobenzene, p-nitrophenol, benzene, toluene, chlorobenzene, benzophenone, naphthalene, 1,4-dibromobenzene, biphenyl, diphenylether, 1,4-diiodobenzene) with known log POW values comprised between 1.89 and 4.64, retention times were determined on two reversed phase columns (Multospher 120 RP-18 AQ, 250 mm × 4.6 mm, 5 μm, CS-Chromatographie Service GmbH, Langerwehe, Germany; SupelcosilTM ABZ + Plus, 250 × 4 mm, 5 μm, Supelco, Bellefonte, PA, USA). […] Dead times t0 were determined by retention of thiourea. Corresponding capacity factors k for all compounds were calculated and plotted as log k versus log P of the standard compounds, affording calibration curves (Microcal^TM Origin 6.0, Microcal Software, Inc., Northhampton, MA, USA). […]

The test system of data set [11] is PDE4A. The arrangement: method as in earlier work. Conditions: cited from earlier work.
Data set [12] concerns PDE3A. The arrangement: method as in earlier work. Particulars: cited from earlier work.
The test system of data set [13] is PDE 9A. The arrangement: method as in earlier work. Conditions: cited from earlier work.
Data set [14] has as its system PDE 1B. Further details: method as in earlier work. Conditions: cited from earlier work.

T1 sequence (Q9Y233 whole entry, species assumed): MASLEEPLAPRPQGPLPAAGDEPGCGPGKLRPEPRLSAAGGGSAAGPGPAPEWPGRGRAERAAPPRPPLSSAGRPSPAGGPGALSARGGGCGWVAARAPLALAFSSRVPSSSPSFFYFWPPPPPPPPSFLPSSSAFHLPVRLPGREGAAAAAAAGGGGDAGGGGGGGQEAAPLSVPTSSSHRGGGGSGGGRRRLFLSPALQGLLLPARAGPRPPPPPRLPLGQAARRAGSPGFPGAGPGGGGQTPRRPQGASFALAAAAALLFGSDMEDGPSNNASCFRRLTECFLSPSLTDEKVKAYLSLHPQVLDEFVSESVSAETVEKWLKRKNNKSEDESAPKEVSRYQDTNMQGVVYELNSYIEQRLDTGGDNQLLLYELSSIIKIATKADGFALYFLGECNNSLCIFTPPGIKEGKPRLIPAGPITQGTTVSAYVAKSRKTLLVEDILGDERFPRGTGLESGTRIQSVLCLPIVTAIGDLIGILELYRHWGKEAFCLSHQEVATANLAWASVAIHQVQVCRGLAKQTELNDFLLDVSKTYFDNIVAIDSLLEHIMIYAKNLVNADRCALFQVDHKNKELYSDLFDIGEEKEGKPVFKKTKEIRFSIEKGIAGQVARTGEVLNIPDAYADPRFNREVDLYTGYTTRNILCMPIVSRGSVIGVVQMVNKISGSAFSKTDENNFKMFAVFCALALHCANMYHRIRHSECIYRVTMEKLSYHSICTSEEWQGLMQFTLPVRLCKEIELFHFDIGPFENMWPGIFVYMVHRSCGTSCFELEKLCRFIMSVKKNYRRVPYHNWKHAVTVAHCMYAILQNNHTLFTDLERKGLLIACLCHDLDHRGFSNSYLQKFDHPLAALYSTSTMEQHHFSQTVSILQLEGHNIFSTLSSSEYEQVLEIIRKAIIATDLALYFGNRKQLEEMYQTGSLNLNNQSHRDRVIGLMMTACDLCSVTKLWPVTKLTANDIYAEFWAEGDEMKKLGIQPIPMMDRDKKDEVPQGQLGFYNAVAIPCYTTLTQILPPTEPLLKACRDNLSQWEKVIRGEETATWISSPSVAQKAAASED

With `Cc1cnc(COc2ccc(-c3nn(CCF)cc3-c3ccncc3)cc2)c(C)c1` [JNJ42259152], the “pIC50,PDE10A” value in [1] is on record as 8.8.
In the case of `COc1cc2c(N3CC[C@@H](Oc4cnc5ccccc5n4)C3)ncnc2cc1OCCF` [IV, (R)-7-(2-fluoroethoxy)-6-methoxy-4-(3-(quinoxalin-2-yloxy)pyrrolidin-1-yl)quinazoline], the IC50 in data set [2] is above 1000 nM; in data set [3] it was above 1000 nM; in data set [4] it was above 1000 nM; in [5] (mean, n = 2, 0.05–0.1 nM [18F]IV) it was 39.3 nM; in [5] (single experiments (n = 2)) it was 38.3 nM and 40.4 nM; in data set [6] (PDE10A), 105 nM. Further, the IC50 in data set [7] was above 1000 nM; in data set [8] it was above 1000 nM; in data set [9], above 1000 nM; in data set [11] it was 562 nM; in data set [12] it was 88.7 nM; in data set [13], above 1000 nM. For the same compound, the half-maximal inhibitory concentration (IC50) in [14] was above 1000 nM. Further, in data set [6] (data to be published in detail elsewhere), the Ki was 53 nM. For the same compound, the chromatographic logD in data set [10] (Multospher 120 RP-18 AQ column, Multospher) came out at 2.63; in data set [10] (Supelcosil ABZ+Plus column, Supelcosil) it was 2.63.
For `FCCn1cc(-c2ccncc2)c(-c2ccc(OCc3ccc4ccccc4n3)cc2)n1` [JNJ41510417], in [1], the IC50 was 0.5 nM and the “pIC50,PDE10A” value is on record as 9.3.
